For three compounds, mass density and refractive index results are on record in the NIST ThermoML archive (doi:10.1016/j.fluid.2005.09.009).

± gives the expanded uncertainty stated by the source.

For data set [1] the following is noted: 298.15 K; 101.33 kPa; Liquid.
A short description of data set [2]: refractive index (Na D-line) (dimensionless). The following applies: 298.15 K; 101.33 kPa; Liquid; Standard Abbe refractometry.

Broadly, the mass density is mass per unit of volume. The term refractive index denotes the speed of light in vacuum divided by its phase velocity in the sample. As for `C=CC(C)(O)CCC=C(C)C` (stereo not given) [3,7-dimethyl-1,6-octadien-3-ol], in data set [1], the mass density worked out at 858.08 ± 2.2 kg/m3. Besides, in data set [2], the refractive index was determined as 1.4595 ± 0.0009.

For the compound `CCO` [ethanol], the mass density in data set [1] was 785.12 ± 0.31 kg/m3. Besides, the refractive index in data set [2] came to 1.3593 ± 0.0007.

Consider `O` [water], for which the refractive index in data set [2] turned out to be 1.3325 ± 0.0008.
